Test results from patent US20170226150A1, “TRITERPENOID COMPOSITION OF ANTRODIA CINNAMOMEA, PREPARATION AND ANALYSIS METHOD THEREOF” (KAOHSIUNG MEDICAL UNIVERSITY, priority 2011, published 2017).
In brackets after ≈: the same amount, converted by molar mass.

Tests used:
[1] = system: CCRF-CEM human acute lymphoblastic leukemia cells; assay: Cytotoxicity test, MTT colorimetric method, CCRF-CEM; format: cell-based
Protocol: (§1) The cytotoxicity test of the obtained major ergostane triterpenoid compounds (zhankuic acid A, zhankuic acid C, antcin C and antcin K) and their stereoisomeric pure compounds (compounds E1 to E6 and E9 to E10) were performed on three leukemia cell lines using MTT (3-(4,5-dimethylthiazol-2-yl)-2,5-diphenyltetrazolium bromide) colorimetric method, and the results were referred to Table 8.

[2] = system: Molt 4 human acute lymphoblastic leukemia cells; assay: Cytotoxicity test, MTT colorimetric method, Molt 4; format: cell-based
Protocol: as §1

[3] = system: HL 60 human promyelocytic leukemia cells; assay: Cytotoxicity test, MTT colorimetric method, HL 60; format: cell-based
Protocol: as §1

[4] = Solubility in solvents for optical rotation measurement; format: physicochemical; conditions: methanol or ethanol
Protocol: After determining the absolute configuration, we tried to measure the optical rotation aiming to complete the spectral profile for the isolated compounds. In a previous report, the mixture form of zhankuic acid A was dissolved in methanol to measure its optical rotation. […] The solubility of compounds E9 and E10 improved through using acetone-methanol mixture. Considering compounds solubility and the convenience of collecting physical and spectral data using single solvent, pyridine was used in optical rotation experiment. The optical rotation of compound E9 was [α]D^25+32.1 (c 0.70, pyridine), and that of compound E10 was [α]D^25+9.0 (c 0.84, pyridine).

Compound	IC50 (μg/ml) CCRF-CEM [1] [µg/mL]	IC50 (μg/ml) Molt 4 [2] [µg/mL]	IC50 (μg/ml) HL 60 [3] [µg/mL]	solubility in single solvent [4]
C=C(CC[C@@H](C)[C@H]1CC[C@H]2C3=C(C(=O)C[C@]12C)[C@@]1(C)CCC(=O)[C@@H](C)C1CC3=O)[C@H](C)C(=O)O (stereo partly drawn) [Compound E9, 4α-methylergosta-8,24(28)-dien-3,7,11-trion-25S-26-oic acid]	21.99 ± 7.91 (≈ 46.9 µM)	42.16 ± 2.33 (≈ 90 µM)	54.67 ± 8.14 (≈ 117 µM)	not sufficient
3α,4β,7β-trihydroxy-4α-methylergosta-8,24(28)-dien-11-on-25S-26-oic acid [Compound E1]	>80	>80	>80	
C=C(CC[C@@H](C)[C@H]1CC[C@H]2C3=C(C(=O)C[C@]12C)[C@@]1(C)CCC(=O)[C@@H](C)[C@@H]1CC3=O)C(C)C(=O)O (some centres unmarked) [Zhankuic acid A, zhankuic acid A]	47.04 ± 6.191 (≈ 100 µM)	53.23 ± 3.88 (≈ 114 µM)	69.98 ± 18.98 (≈ 149 µM)	
antcin K	>80	>80	>80	
C=C(CC[C@@H](C)[C@H]1CC[C@H]2C3=C(C(=O)[C@H](O)[C@]12C)[C@@]1(C)CC[C@@H](O)[C@@H](C)C1CC3=O)[C@H](C)C(=O)O (stereo partly drawn) [Compound E6, 3α,12α-dihydroxy-4α-methylergosta-8,24(28)-dien-7,11-dion-25S-26-oic acid]	>80	>80	>80	
C=C(CC[C@@H](C)[C@H]1CC[C@H]2C3=C(C(=O)C[C@]12C)[C@@]1(C)CCC(=O)[C@@H](C)C1C[C@@H]3O)[C@H](C)C(=O)O (stereo partly drawn) [Compound E3, 7β-hydroxy-4α-methylergosta-8,24(28)-dien-3,11-dion-25S-26-oic acid]	30.681 ± 5.30 (≈ 65.2 µM)	77.04 ± 2.78 (≈ 164 µM)	>80	
antcin C	28.82 ± 6.79	55.02 ± 3.34	47.02 ± 4.45	
C=C(CC[C@@H](C)[C@H]1CC[C@H]2C3=C(C(=O)C[C@]12C)[C@@]1(C)CC[C@@H](O)[C@](C)(O)[C@@H]1C[C@@H]3O)[C@@H](C)C(=O)O [Compound E2, 3α,4β,7β-trihydroxy-4α-methylergosta-8,24(28)-dien-11-on-25R-26-oic acid]	>80	>80	>80	
C=C(CC[C@@H](C)[C@H]1CC[C@H]2C3=C(C(=O)[C@H](O)[C@]12C)[C@@]1(C)CC[C@@H](O)[C@@H](C)C1CC3=O)[C@@H](C)C(=O)O (stereo partly drawn) [Compound E5, 3α,12α-dihydroxy-4α-methylergosta-8,24(28)-dien-7,11-dion-25R-26-oic acid]	>80	>80	>80	
C=C(CC[C@@H](C)[C@H]1CC[C@H]2C3=C(C(=O)C[C@]12C)[C@@]1(C)CCC(=O)[C@@H](C)C1CC3=O)[C@@H](C)C(=O)O (stereo partly drawn) [Compound E10, 4α-methylergosta-8,24(28)-dien-3,7,11-trion-25R-26-oic acid]	22.90 ± 7.60 (≈ 48.9 µM)	16.44 ± 3.77 (≈ 35.1 µM)	23.32 ± 1.60 (≈ 49.8 µM)	not sufficient
C=C(CC[C@@H](C)[C@H]1CC[C@H]2C3=C(C(=O)C[C@]12C)[C@@]1(C)CCC(=O)[C@@H](C)C1C[C@@H]3O)[C@@H](C)C(=O)O (stereo partly drawn) [Compound E4, 7β-hydroxy-4α-methylergosta-8,24(28)-dien-3,11-dion-25R-26-oic acid]	27.94 ± 6.44 (≈ 59.4 µM)	54.28 ± 1.96 (≈ 115 µM)	>80	
C=C(CC[C@@H](C)[C@H]1CC[C@H]2C3=C(C(=O)[C@H](O)[C@]12C)[C@@]1(C)CC[C@@H](O)[C@@H](C)[C@@H]1CC3=O)C(C)C(=O)O (some centres unmarked) [Zhankuic acid C, zhankuic acid C]	>80	>80	>80	
